{"source": "patent EP0606463B1", "about": "“NEUROMEDIN B RECEPTOR ANTAGONISTS” (The Administrators of The Tulane Educational Fund, priority 1992, dated 1994)", "key": {"GRP Receptor": {"target": "T1, GRP Receptor (Rattus norvegicus, UniProt P52500)", "T1 construct": "from tissue; host or cells: dispersed pancreatic acini", "T1 sequence (P52500 whole entry)": "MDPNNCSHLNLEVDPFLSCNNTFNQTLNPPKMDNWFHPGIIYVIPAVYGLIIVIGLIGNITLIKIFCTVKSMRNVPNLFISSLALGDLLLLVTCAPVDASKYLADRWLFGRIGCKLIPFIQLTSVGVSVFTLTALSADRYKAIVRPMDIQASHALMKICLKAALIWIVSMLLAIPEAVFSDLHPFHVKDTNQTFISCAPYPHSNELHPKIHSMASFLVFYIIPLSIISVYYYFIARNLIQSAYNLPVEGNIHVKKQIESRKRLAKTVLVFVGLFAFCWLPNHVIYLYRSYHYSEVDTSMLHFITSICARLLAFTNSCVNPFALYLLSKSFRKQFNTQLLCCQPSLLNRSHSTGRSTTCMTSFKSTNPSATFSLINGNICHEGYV", "assay": "Amylase release from rat pancreatic acini", "format": "cell-based"}, "[1]": {"target": "T2, NMB receptors on C-6 glioblastoma cells (Rattus norvegicus, UniProt P24053)", "T2 construct": "endogenous in cells; host or cells: rat glioblastoma C-6 cells", "T2 sequence (P24053 1-390)": "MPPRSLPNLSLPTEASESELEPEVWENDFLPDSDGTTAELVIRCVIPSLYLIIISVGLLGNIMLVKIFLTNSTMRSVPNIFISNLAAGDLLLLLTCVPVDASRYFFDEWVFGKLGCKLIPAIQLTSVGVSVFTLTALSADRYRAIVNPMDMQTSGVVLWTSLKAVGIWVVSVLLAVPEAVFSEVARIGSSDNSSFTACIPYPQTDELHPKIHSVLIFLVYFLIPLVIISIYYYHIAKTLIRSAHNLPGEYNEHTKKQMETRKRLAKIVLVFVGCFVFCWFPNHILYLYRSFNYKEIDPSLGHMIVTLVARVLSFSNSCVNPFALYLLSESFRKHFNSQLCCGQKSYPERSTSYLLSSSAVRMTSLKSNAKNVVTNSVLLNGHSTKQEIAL", "assay": "NMB-stimulated [3H]IP in C-6 glioblastoma cells", "format": "cell-based", "experimental": "Total phosphoinositides in C-6 cells and in NMB-R transfected cells were determined as described previously, with minor modifications [Benya, R. V. et al. Mol. Pharmacol. 42:1058 (1992); and Wang, L-H. et al. Biochem. J. 286:641 (1992)]. Cells were grown to confluence in 24-well plates and then loaded with 100 µCi/ml myo-[2-^3H]inositol in Dulbecco's modified essential medium with 2% fetal bovine serum at 37°C for 48 hrs. Cells were washed and incubated in phosphoinositide buffer (standard buffer additionally containing 10 mM LiCl, 20 mM HEPES, 2 mM CaCl2, 2% BSA, and 1.2 mM MgSO4) for 15 min and then […] Reactions were halted using ice-cold 1% HCl in methanol, and the inositol phosphates (IP) were isolated as described previously [Bologna, M. et al. Cancer 63:1714 (1989); and Endo, T. et al. J. Endocrinol. 131:313 (1991)]. Briefly, after loading of the anion exchange column, free [^3H]glycerophosphorylinositol was removed by washing with 5 mM disodium tetraborate in 60 mM sodium formate. Total [^3H]inositol phosphates were then eluted using 100 mM formic acid in 1.0 M ammonium formate as described previously [Benya, R. V. et al. Mol. Pharmacol. 42:1058 (1992); and Wang, L-H. et al. Biochem. J. 286:641 (1992)]."}, "[2]": {"tested_on": "endothelin-1-simulated increases in [^3H]IP", "assay": "Endothelin-1-stimulated [3H]IP in C-6 glioblastoma cells", "format": "cell-based, rat", "settings": "for effect on endothelin-1-simulated increases in [^3H]IP in C-6 cells: Table 3", "experimental": "Total phosphoinositides in C-6 cells and in NMB-R transfected cells were determined as described previously, with minor modifications [Benya, R. V. et al. Mol. Pharmacol. 42:1058 (1992); and Wang, L-H. et al. Biochem. J. 286:641 (1992)]. Cells were grown to confluence in 24-well plates and then loaded with 100 µCi/ml myo-[2-^3H]inositol in Dulbecco's modified essential medium with 2% fetal bovine serum at 37°C for 48 hrs. Cells were washed and incubated in phosphoinositide buffer (standard buffer additionally containing 10 mM LiCl, 20 mM HEPES, 2 mM CaCl2, 2% BSA, and 1.2 mM MgSO4) for 15 min and then for 60 min at 37°C with agonists at various concentrations or with 3 nM NMB (a half-maximal effective concentration) and possible antagonists at different concentrations. Reactions were halted using ice-cold 1% HCl in methanol, and the inositol phosphates (IP) were isolated as described previously [Bologna, M. et al. Cancer 63:1714 (1989); and Endo, T. et al. J. Endocrinol. 131:313 (1991)]. Briefly, after loading of the anion exchange column, free [^3H]glycerophosphorylinositol was removed by washing with 5 mM disodium tetraborate in 60 mM sodium formate. Total [^3H]inositol phosphates were then eluted using 100 mM formic acid in 1.0 M ammonium formate as described previously [Benya, R. V. et al. Mol. Pharmacol. 42:1058 (1992); and Wang, L-H. et al. Biochem. J. 286:641 (1992)]."}, "[3]": {"target": "T3, NMB receptors on rat olfactory bulb membranes (Rattus norvegicus, UniProt P24053)", "T3 construct": "Membranes were prepared from rat olfactory bulb (NMB membrane receptor assay); from tissue; host or cells: rat olfactory bulb membranes", "T3 sequence (P24053 1-390)": "T2 sequence (P24053 1-390)", "assay": "NMB membrane receptor assay (rat olfactory bulb membranes)", "format": "binding"}, "CCKB": {"target": "T4, CCKB (Rattus norvegicus, UniProt P30553)", "T4 construct": "rat cerebral cortex (CCKB, PYY, neurotensin); from tissue; host or cells: rat cerebral cortex membranes", "T4 sequence (P30553 whole entry)": "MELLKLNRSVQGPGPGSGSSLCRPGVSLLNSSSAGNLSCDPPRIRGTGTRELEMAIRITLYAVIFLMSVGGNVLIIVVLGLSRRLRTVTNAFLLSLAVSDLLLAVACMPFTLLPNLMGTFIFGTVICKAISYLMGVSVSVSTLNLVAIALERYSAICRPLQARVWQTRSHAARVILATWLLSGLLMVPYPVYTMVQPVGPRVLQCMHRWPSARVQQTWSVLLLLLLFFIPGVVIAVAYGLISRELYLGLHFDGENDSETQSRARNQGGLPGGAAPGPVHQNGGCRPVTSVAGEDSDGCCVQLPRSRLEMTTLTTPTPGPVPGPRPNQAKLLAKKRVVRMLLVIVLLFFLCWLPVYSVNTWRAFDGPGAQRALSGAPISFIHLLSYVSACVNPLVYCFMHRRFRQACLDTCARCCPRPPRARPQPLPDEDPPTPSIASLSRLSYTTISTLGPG", "assay": "CCKB membrane receptor assay", "format": "binding", "settings": "at 1 µM"}, "endothelinA": {"target": "T5, endothelinA (Rattus norvegicus, UniProt P26684)", "T5 construct": "A10 smooth muscle cells (EtA membrane receptor assay); endogenous in cells; host or cells: A10 smooth muscle cells (membranes)", "T5 sequence (P26684 21-426)": "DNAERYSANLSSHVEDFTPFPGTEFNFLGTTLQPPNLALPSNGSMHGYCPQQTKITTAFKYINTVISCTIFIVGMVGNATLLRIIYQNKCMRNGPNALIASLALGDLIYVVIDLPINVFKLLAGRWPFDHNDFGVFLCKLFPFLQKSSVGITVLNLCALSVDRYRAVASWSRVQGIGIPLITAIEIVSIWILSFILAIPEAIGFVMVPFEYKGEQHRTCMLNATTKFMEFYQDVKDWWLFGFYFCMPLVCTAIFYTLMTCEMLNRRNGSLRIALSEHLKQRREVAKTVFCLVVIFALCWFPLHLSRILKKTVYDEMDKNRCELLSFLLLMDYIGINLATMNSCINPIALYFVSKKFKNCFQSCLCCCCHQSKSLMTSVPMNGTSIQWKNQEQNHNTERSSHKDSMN", "assay": "EtA membrane receptor assay (A10 smooth muscle cells)", "format": "binding", "settings": "at 1 µM"}, "bradykinin1": {"tested_on": "bradykinin1", "assay": "Bradykinin membrane receptor assay", "format": "binding", "settings": "at 1 µM"}, "delta opioid": {"target": "T6, delta opioid (Rattus norvegicus, UniProt P33533)", "T6 construct": "rat forebrain (TRH, mu and delta opioid membrane assays); from tissue; host or cells: rat forebrain membranes", "T6 sequence (P33533 whole entry)": "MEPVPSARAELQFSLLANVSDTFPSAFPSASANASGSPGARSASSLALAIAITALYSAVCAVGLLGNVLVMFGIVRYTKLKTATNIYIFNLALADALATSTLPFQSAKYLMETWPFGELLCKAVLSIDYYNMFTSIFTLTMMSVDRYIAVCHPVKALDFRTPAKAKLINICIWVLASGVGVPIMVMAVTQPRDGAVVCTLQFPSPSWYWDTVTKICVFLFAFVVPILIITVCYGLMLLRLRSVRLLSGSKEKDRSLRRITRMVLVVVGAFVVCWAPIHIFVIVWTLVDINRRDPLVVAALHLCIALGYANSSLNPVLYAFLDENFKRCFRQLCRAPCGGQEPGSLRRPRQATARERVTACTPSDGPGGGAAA", "assay": "delta opioid membrane assay", "format": "binding", "settings": "at 1 µM"}, "[4]": {"target": "T7, N-methyl D-aspartate receptors (Rattus norvegicus, UniProt P35439)", "T7 construct": "from tissue; host or cells: rat cerebral cortex membranes", "assay": "N-methyl-D-aspartate membrane receptor assay", "format": "binding", "settings": "at 1 µM"}}, "note": "Where a SMILES comes first, the peptide text is derived from it. Bridges are numbered along the chain shown (N, C = ends). [ ]: non-standard residue; d: D form. 2Nal = N[C@@H](Cc1ccc2ccccc2c1)C(=O)O; d2Nal = N[C@H](Cc1ccc2ccccc2c1)C(=O)O"}
{"smiles": "CC(C)[C@@H]1NC(=O)[C@H](CCCCN)NC(=O)[C@@H](Cc2c[nH]c3ccccc23)NC(=O)[C@H](Cc2ccc(O)cc2)NC(=O)[C@@H](NC(=O)[C@H](N)Cc2ccc3ccccc3c2)CSSC[C@@H](C(=O)N[C@@H](Cc2ccc3ccccc3c2)C(N)=O)NC1=O", "note": "[Analog #1, D-Nal-Cys-Tyr-D-Trp-Lys-Val-Cys-Nal-NH2] (H-[d2Nal]CY[dW]KVC[2Nal]-NH2; disulfide 2-7; N-terminus assumed)", "values": [{"measurement": "Rat Pancreatic Acini Amylase Release Alone (10µM)", "setting": "GRP Receptor; analog 10 µM alone, no-additive control 4 ± 1", "result": "5 ± 1", "unit": "% total"}, {"measurement": "Rat Pancreatic Acini Amylase Release Plus Bn(0.3 nM)", "setting": "GRP Receptor; analog 10 µM plus Bn 0.3 nM, Bn without analog 15 ± 1", "result": "15 ± 2", "unit": "% total"}, {"measurement": "effect on Bn-stimulated amylase release", "setting": "GRP Receptor; rat pancreatic acini, Bn 0.3 nM, peptide 10 µM", "result": "did not inhibit"}, {"measurement": "[^3H]IP, Peptide Added NMB (10 nM)", "setting": "[1]; C-6 glioblastoma cells, analog 10 µM plus NMB 10 nM", "result": "7.5 ± 1.0", "unit": "dpm x 10^3"}, {"measurement": "[^3H]IP, Peptide Added None", "setting": "[1]; C-6 glioblastoma cells, analog 10 µM, no agonist, control 7.2±1.0", "result": "7.4 ± 1.3", "unit": "dpm x 10^3"}, {"measurement": "effect on NMB-stimulated increases in [^3H]IP in C-6 glioblastoma cells", "setting": "[1]; Table 3", "result": "inhibited"}, {"measurement": "[^3H]IP, Peptide Added ET-1 (0.1 nM)", "setting": "[2]; C-6 glioblastoma cells, analog 10 µM plus ET-1 0.1 nM", "result": "10.9 ± 1.8", "unit": "dpm x 10^3"}, {"measurement": "effect on endothelin-1-simulated increases in [^3H]IP in C-6 cells", "setting": "[2]", "result": "had no effect"}, {"measurement": "effect on endothelin-1-simulated increases in [^3H]IP in C-6 cells", "setting": "[2]; listed as Cycle SS-octa", "result": "did not inhibit"}, {"measurement": "inhibition at 1 µM", "setting": "[3]; at 1 µM, read-out: inhibition of binding to NMB receptors on rat olfactory bulb membranes", "result": "> 95", "unit": "%"}, {"measurement": "fold greater affinity for NMB receptors than mu opioid receptors", "setting": "[3]; rat olfactory bulb versus rat forebrain membranes (Table 4)", "result": 10, "unit": "fold"}, {"measurement": "inhibition of binding to CCKB", "setting": "CCKB", "result": "did not inhibit binding"}, {"measurement": "inhibition of binding to endothelinA", "setting": "endothelinA", "result": "did not inhibit binding"}, {"measurement": "inhibition of binding to bradykinin1", "setting": "bradykinin1", "result": "did not inhibit binding"}, {"measurement": "inhibition of binding to delta opioid", "setting": "delta opioid", "result": "did not inhibit binding"}, {"measurement": "inhibition of binding to N-methyl D-aspartate receptors", "setting": "[4]", "result": "did not inhibit binding"}]}
